Source: PubChem BioAssay (NCI)
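96-well plates; 48 h exposure; 5 concentrations. Endpoints by linear interpolation between flanking doses. Not reached: highest tested concentration assigned. At the TGI there is no net growth.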

Columns and labels:
Assay in all cases: DTP human tumour cell line panel, 48 h
[1] = tested on: 786-0 renal
[2] = tested on: A549 NSCLC
[3] = tested on: HCT-116 colon
[4] = tested on: HS 578T breast
[5] = tested on: IGROV1 ovarian
[6] = tested on: K-562 leukemia
[7] = tested on: RXF 393 renal
[8] = tested on: SK-MEL-28 melanoma
[9] = tested on: UACC-62 melanoma
[10] = tested on: CCRF-CEM leukemia

## C=C(C1=CC(=O)C(C)(C)O1)[C@@H]1CC=C([C@@H]2CC[C@H]3[C@@]2(C)CC[C@H]2C(C)(C)C(=O)[C@H](O)C[C@]32C)[C@H](O)O1
[1]
  TGI: 0.79 µM
[2]
  TGI: 30.7 µM
[3]
  TGI: 3 µM
[4]
  TGI: 13.1 µM
[5]
  TGI: 5.48 µM
[6]
  TGI: 8.01 µM
[7]
  TGI: 3.59 µM
[8]
  TGI: 12.2 µM
[9]
  TGI: 14.9 µM

## CCOC(=O)Nn1c(C)nnc1-c1ccccc1
[1]
  TGI: > 100 µM
[2]
  TGI: > 100 µM
[10]
  TGI: > 100 µM
[3]
  TGI: > 100 µM
[4]
  TGI: > 100 µM
[5]
  TGI: > 100 µM
[6]
  TGI: > 100 µM
[7]
  TGI: > 100 µM
[9]
  TGI: > 100 µM

## O=C(Cc1cccs1)N[C@@H]1C(=O)N2C(C(=O)OC(c3ccccc3)c3ccccc3)=C(CO)CS[C@H]12
[1]
  TGI: > 100 µM
[2]
  TGI: > 100 µM
[10]
  TGI: > 100 µM
[3]
  TGI: > 100 µM
[5]
  TGI: > 100 µM
[6]
  TGI: > 100 µM
[7]
  TGI: > 100 µM
[9]
  TGI: > 100 µM

## COc1ccc(/C=C2\CCC(C)C3=C2NC(=S)NC3c2ccc(OC)c(OC)c2)cc1OC (centres undefined)
[1]
  TGI: > 31.6 µM
[2]
  TGI: > 100 µM
[3]
  TGI: > 31.6 µM
[4]
  TGI: > 31.6 µM
[5]
  TGI: > 31.6 µM
[6]
  TGI: > 31.6 µM
[8]
  TGI: > 31.6 µM
[9]
  TGI: > 31.6 µM

## Clc1ccc(/C=C/c2nc3ccccc3s2)cc1Cl
[1]
  TGI: 32.1 µM
[2]
  TGI: > 100 µM
[10]
  TGI: > 100 µM
[3]
  TGI: 63.8 µM
[4]
  TGI: 80.8 µM
[5]
  TGI: > 100 µM
[6]
  TGI: > 100 µM
[8]
  TGI: > 100 µM
[9]
  TGI: > 100 µM

## CC[C@@]1(O)C(=O)OCc2c1cc1n(c2=O)Cc2c-1nc1ccccc1c2/C=N\NC(=O)CN
[1]
  TGI: 5.7 µM
[2]
  TGI: > 100 µM
[3]
  TGI: 16.1 µM
[4]
  TGI: > 100 µM
[5]
  TGI: > 66.7 µM
[6]
  TGI: > 100 µM
[7]
  TGI: 7.66 µM
[8]
  TGI: > 100 µM
[9]
  TGI: 0.842 µM

## O=C1C(=Cc2ccc(O)cc2)N=C(c2ccccc2)N1n1c(-c2ccccc2)nc2ccccc2c1=O
[1]
  TGI: > 100 µM
[2]
  TGI: > 100 µM
[10]
  TGI: > 100 µM
[3]
  TGI: > 100 µM
[4]
  TGI: > 100 µM
[5]
  TGI: > 100 µM
[8]
  TGI: > 100 µM
[9]
  TGI: > 100 µM

## COc1ccc2c(=O)c(O)c(-c3ccc(OC)c(OC)c3)oc2c1
[2]
  TGI: > 100 µM
[10]
  TGI: > 100 µM
[3]
  TGI: > 100 µM
[5]
  TGI: > 100 µM
[6]
  TGI: > 100 µM
[8]
  TGI: > 100 µM
[9]
  TGI: > 100 µM

## C[n+]1c2ccccc2c(/C=N\NS(=O)(=O)c2ccc(O)c(C(=O)O)c2)c2ccccc21
[1]
  TGI: > 100 µM
[2]
  TGI: > 100 µM
[10]
  TGI: > 100 µM
[3]
  TGI: > 100 µM
[5]
  TGI: > 100 µM
[6]
  TGI: > 100 µM
[7]
  TGI: > 100 µM
[8]
  TGI: > 100 µM
[9]
  TGI: > 100 µM

## CNC(=O)C(C)C1CCC2(C)C=CC(=O)C(C)=C2C1O (centres undefined)
[2]
  TGI: > 90.2 µM
[10]
  TGI: > 100 µM
[3]
  TGI: > 100 µM
[5]
  TGI: > 100 µM
[6]
  TGI: > 100 µM
[7]
  TGI: > 100 µM
[8]
  TGI: > 100 µM
[9]
  TGI: > 100 µM

## COc1ccc(C(OCC2OC(n3cc(C)c(=O)[nH]c3=O)CC2n2cc(Cn3cc(I)c(=O)[nH]c3=O)nn2)(c2ccccc2)c2ccccc2)cc1 (centres undefined)
[1]
  TGI: > 100 µM
[2]
  TGI: > 100 µM
[10]
  TGI: > 100 µM
[3]
  TGI: > 100 µM
[4]
  TGI: > 100 µM
[5]
  TGI: > 100 µM
[7]
  TGI: > 100 µM
[8]
  TGI: > 100 µM
[9]
  TGI: > 100 µM

## Cc1ccccc1-n1c(=O)c2ncn(CCCl)c2n(-c2ccccc2C)c1=S
[1]
  TGI: > 100 µM
[2]
  TGI: > 100 µM
[10]
  TGI: > 100 µM
[3]
  TGI: > 100 µM
[5]
  TGI: > 100 µM
[6]
  TGI: > 100 µM
[7]
  TGI: > 100 µM
[8]
  TGI: > 100 µM
[9]
  TGI: > 100 µM

## Cc1nc(C(N)=S)sc1/C(CC(=O)C(=O)Nc1cccc2ccc(O)cc12)=N\NC(=O)c1ccncc1
[1]
  TGI: > 100 µM
[2]
  TGI: > 100 µM
[10]
  TGI: > 100 µM
[3]
  TGI: > 100 µM
[4]
  TGI: > 100 µM
[5]
  TGI: > 100 µM
[7]
  TGI: > 100 µM
[8]
  TGI: > 100 µM
[9]
  TGI: > 100 µM

## O=C1c2ccccc2C2C1N2C(=O)C(F)(F)F (centres undefined)
[1]
  TGI: > 100 µM
[2]
  TGI: > 100 µM
[10]
  TGI: 70.9 µM
[3]
  TGI: > 100 µM
[5]
  TGI: > 100 µM
[6]
  TGI: > 100 µM
[7]
  TGI: > 100 µM
[8]
  TGI: > 100 µM
[9]
  TGI: > 100 µM

## CCN(CC)CCC(=O)Nc1ccc2c(c1)C(=O)c1ccc(NC(=O)CCN(CC)CC)cc1C2=O
[1]
  TGI: 8.42 µM
[2]
  TGI: 20.6 µM
[10]
  TGI: 18.5 µM
[3]
  TGI: 10.1 µM
[5]
  TGI: 12 µM
[6]
  TGI: 14.8 µM
[7]
  TGI: 9.27 µM
[8]
  TGI: 24.6 µM
[9]
  TGI: 22.3 µM

## CC(N)Cc1ccc(C(=O)Cl)cc1 (centres undefined)
[1]
  TGI: > 100 µM
[2]
  TGI: > 100 µM
[10]
  TGI: > 100 µM
[3]
  TGI: > 100 µM
[5]
  TGI: > 100 µM
[6]
  TGI: > 100 µM
[7]
  TGI: > 100 µM
[8]
  TGI: > 100 µM
[9]
  TGI: > 100 µM

## O=C(O)CN(CC(=O)O)C1CCCCC1N(CC(=O)O)CC(=O)NCCN=C=S (centres undefined)
[2]
  TGI: > 100 µM
[10]
  TGI: > 100 µM
[3]
  TGI: > 100 µM
[4]
  TGI: > 100 µM
[5]
  TGI: > 100 µM
[6]
  TGI: > 100 µM
[7]
  TGI: > 100 µM
[8]
  TGI: > 100 µM
[9]
  TGI: > 100 µM

## O=C1CCC23CC(C=CC=C12)n1c(=O)n(-c2ccccc2)c(=O)n13 (centres undefined)
[2]
  TGI: > 100 µM
[10]
  TGI: > 100 µM
[3]
  TGI: > 100 µM
[5]
  TGI: > 100 µM
[6]
  TGI: > 100 µM
[7]
  TGI: > 100 µM
[8]
  TGI: > 100 µM
[9]
  TGI: > 100 µM

## Cc1cn(C2CC(n3cc(Cn4cc(I)c(=O)[nH]c4=O)nn3)C(CO)O2)c(=O)[nH]c1=O (centres undefined)
[2]
  TGI: > 100 µM
[10]
  TGI: > 100 µM
[3]
  TGI: > 100 µM
[4]
  TGI: > 100 µM
[7]
  TGI: > 100 µM
[8]
  TGI: > 100 µM
[9]
  TGI: > 100 µM

## O=C(Nc1ccc(C2=NCCN2)cc1)c1cncc(C(=O)Nc2ccc(C3=NCCN3)cc2)c1
[2]
  TGI: > 100 µM
[10]
  TGI: > 100 µM
[3]
  TGI: > 100 µM
[5]
  TGI: > 100 µM
[6]
  TGI: > 100 µM
[7]
  TGI: > 100 µM
[8]
  TGI: > 31.6 µM
[9]
  TGI: > 100 µM

## [N-]=[N+]=Nc1cc(=O)oc2ccccc12
[1]
  TGI: > 100 µM
[2]
  TGI: > 100 µM
[10]
  TGI: > 100 µM
[3]
  TGI: > 100 µM
[5]
  TGI: > 100 µM
[6]
  TGI: > 100 µM
[7]
  TGI: > 100 µM
[8]
  TGI: > 100 µM
[9]
  TGI: > 100 µM
